The results in this text go back to ChEMBL document CHEMBL4477244, “Synthesis and biological evaluation of matrine derivatives as anti-hepatocellular cancer agents” (Bioorg Med Chem Lett, 2016).

The structures appear in SMILES notation. Activity calls are given as the source filed them. No cut-off for these calls is given here.

The test system of experiment [1] is SGC-7901. In words: Antiproliferative activity against human SGC7901 cells after 48 hrs by MTT assay. The class given is functional, cell-based. The following applies: SGC-7901, 48 h.
Experiment [2] deals with MCF7. Briefly: Antiproliferative activity against human MCF7 cells after 48 hrs by MTT assay. Format: functional, cell-based. The following applies: MCF7, 48 h.
Experiment [3] has as its system A549. In words: Antiproliferative activity against human A549 cells after 48 hrs by MTT assay. The class given is functional, cell-based. The settings on record: A549, 48 h. On the technique in general: Formazan colour is commonly taken as a measure of viable cells.
Experiment [4] relates to Bel-7402. Briefly: Antiproliferative activity against human Bel7402 cells after 48 hrs by MTT assay. The settings on record: for IC50: Bel-7402, 48 h. The class given is functional, cell-based.
Experiment [5] has as its system HepG2. Briefly: Antiproliferative activity against human HepG2 cells after 48 hrs by MTT assay. The class given is functional, cell-based.
Experiment [6] deals with HepG2. Briefly: Antiproliferative activity against human HepG2 cells at 5 to 40 uM by MTT assay. The class given is functional, cell-based. The following applies: TDE = time-dependent effect.
Experiment [7] deals with Bel-7402. Briefly: Antiproliferative activity against human Bel7402 cells at 5 to 40 uM by MTT assay. The settings on record: TDE = time-dependent effect. Format: functional, cell-based.
Experiment [8] has as its system Bel-7402. In words: Cell cycle arrest in human Bel7402 cells assessed as accumulation at G1 phase after 24 hrs by propidium iodide staining-based flow cytometry. Format: functional.
The test system of experiment [9] is HepG2. In words: Cell cycle arrest in human HepG2 cells assessed as accumulation at G1 phase after 24 hrs by propidium iodide staining-based flow cytometry. Format: functional. On the technique in general: In flow cytometry, cells or beads pass a laser one at a time.
In experiment [10] the test system is Bel-7402. Briefly: Cell cycle arrest in human Bel7402 cells assessed as accumulation at G1 phase at 10 uM after 24 hrs by propidium iodide staining-based flow cytometry (reference value: 49%). The class given is functional.
Experiment [11] concerns Bel-7402. In words: Cell cycle arrest in human Bel7402 cells assessed as accumulation at G1 phase at 20 uM after 24 hrs by propidium iodide staining-based flow cytometry (reference value: 49%). Format: functional.
Experiment [12] relates to HepG2. In words: Cell cycle arrest in human HepG2 cells assessed as accumulation at G1 phase at 10 uM after 24 hrs by propidium iodide staining-based flow cytometry (reference value: 48%). Format: functional.
Experiment [13] relates to HepG2. In words: Cell cycle arrest in human HepG2 cells assessed as accumulation at G1 phase at 20 uM after 24 hrs by propidium iodide staining-based flow cytometry (reference value: 48%). Format: functional.
The test system of experiment [14] is Bel-7402. Briefly: Antimigratory activity in human Bel7402 cells assessed as cell migration at 10 uM incubated for 48 hrs by wound healing assay (reference value: 60%). Format: functional.
In experiment [15] the test system is Bel-7402. Briefly: Antimigratory activity in human Bel7402 cells assessed as cell migration at 20 uM incubated for 48 hrs by wound healing assay (reference value: 60%). The class given is functional.
For experiment [16], the system named is HepG2. In words: Antimigratory activity in human HepG2 cells assessed as cell migration at 10 uM incubated for 48 hrs by wound healing assay (reference value: 58%). The class given is functional.
The test system of experiment [17] is HepG2. Briefly: Antimigratory activity in human HepG2 cells assessed as cell migration at 20 uM incubated for 48 hrs by wound healing assay (reference value: 58%). The class given is functional.
Experiment [18] relates to Bel-7402. Briefly: Upregulation of P21 in human Bel7402 cells at 5 to 20 uM after 24 hrs by Western blot analysis. The class given is functional, cell-based. (In general: A western blot detects proteins with antibodies after separation by electrophoresis.)
Experiment [19] has as its system Bel-7402. Briefly: Upregulation of P27 in human Bel7402 cells at 5 to 20 uM after 24 hrs by Western blot analysis. Format: functional, cell-based.
The subject of experiment [20] is Bel-7402. Briefly: Upregulation of E-cadherin in human Bel7402 cells after 48 hrs by Western blot analysis. The class given is functional, cell-based.
Experiment [21] deals with Bel-7402. In words: Downregulation of N-cadherin in human Bel7402 cells after 48 hrs by Western blot analysis. Format: functional, cell-based.
The test system of experiment [22] is HepG2. In words: Upregulation of E-cadherin in human HepG2 cells after 48 hrs by Western blot analysis. Format: functional, cell-based.
The test system of experiment [23] is HepG2. Briefly: Downregulation of N-cadherin in human HepG2 cells after 48 hrs by Western blot analysis. The class given is functional, cell-based.
Experiment [24] concerns HepG2. Briefly: Upregulation of P21 in human HepG2 cells at 5 to 20 uM after 24 hrs by Western blot analysis. The class given is functional, cell-based.
In experiment [25] the test system is HepG2. Briefly: Upregulation of P27 in human HepG2 cells at 5 to 20 uM after 24 hrs by Western blot analysis. Format: functional, cell-based.

As a reminder, the IC50 is the midpoint of a concentration-inhibition curve. Low values mean higher potency, high ones lower potency.

Turning to `O=c1c2c(oc3cccc(O)c13)N1C[C@@H]3CCCN4CCC[C@@H]([C@H]34)[C@H]1CC2`, the IC50 in [1], in [2], in experiment [3] and in [4] was more than 100 µM each time.

Turning to `O=c1c2c(oc3cc(Cl)ccc13)N1C[C@@H]3CCCN4CCC[C@@H]([C@H]34)[C@H]1CC2`, the IC50 in [1] is 28.9 µM; in experiment [2], 28.1 µM; in experiment [3] it was 36 µM; in [4], 25.2 µM. Besides, the Activity result in experiment [5] is “Dose-dependent effect”; in experiment [6], “Tde”; in experiment [7] it was “Tde”; in experiment [8], “Dose-dependent effect”; in [9], “Dose-dependent effect”; in experiment [10] it was 67%. Besides, the Activity is 79% in [11]; 54% in [12]; 65% in [13]; 75% in experiment [14]; 85% in [15]; 80% in experiment [16]. Besides, the Activity is 83% in [17]; “Dose-dependent effect” in experiment [20]; “Dose-dependent effect” in [21]; “Dose-dependent effect” in [22]; “Dose-dependent effect” in [23]. For the same molecule, the result in [18], in [19], in experiment [24] and in experiment [25] was Active.

Take `COc1cccc2c(=O)c3c(oc12)N1C[C@@H]2CCCN4CCC[C@@H]([C@H]24)[C@H]1CC3`: the IC50 in experiment [1] worked out at 81.6 µM; in [2], 75.4 µM; in experiment [3], 96.5 µM; in experiment [4], 71.9 µM.

Turning to `O=C1CCC[C@@H]2[C@H]3CCCN4CCC[C@@H](CN12)[C@@H]34` [MATRINE], the IC50 in experiment [1] worked out at 1380 µM; in [2], 2500 µM; in experiment [3], 3920 µM; in experiment [4] it was 2060 µM. Further, the Activity entry in [4] was “Dose-dependent effect”.

Take `O=c1c2c(oc3cc(C(F)(F)F)ccc13)N1C[C@@H]3CCC[N+]4([O-])CCC[C@@H]([C@H]34)[C@H]1CC2` (stereo partly specified): the IC50 in [1] stood at 79.1 µM; in [2] it was 73.8 µM; in [3], 114 µM; in experiment [4], 66 µM.

For the molecule `Cc1ccc2c(=O)c3c(oc2c1)N1C[C@@H]2CCCN4CCC[C@@H]([C@H]24)[C@H]1CC3`, the IC50 worked out at 46.8 µM in experiment [1], 48.6 µM in [2], 52.9 µM in experiment [3] and 30.3 µM in [4].

`COc1ccc2c(=O)c3c(oc2c1)N1C[C@@H]2CCCN4CCC[C@@H]([C@H]24)[C@H]1CC3`: the IC50 came out at 67.2 µM in experiment [1], 77.4 µM in [2], 97.6 µM in [3] and 48 µM in experiment [4].

With `O=c1c2c(oc3ccccc13)N1C[C@@H]3CCCN4CCC[C@@H]([C@H]34)[C@H]1CC2`, the IC50 in [1], in experiment [2], in [3] and in [4] was more than 100 µM throughout.

As to `O=c1c2c(oc3ccc(Cl)cc13)N1C[C@@H]3CCCN4CCC[C@@H]([C@H]34)[C@H]1CC2`, the IC50 was determined as 45.2 µM in experiment [1], 48.2 µM in experiment [2], 57 µM in [3] and 36.2 µM in experiment [4].

For the molecule `Cc1cccc2c(=O)c3c(oc12)N1C[C@@H]2CCCN4CCC[C@@H]([C@H]24)[C@H]1CC3`, the IC50 is 51.5 µM in experiment [1], 52.9 µM in [2], 73.2 µM in experiment [3] and 40.7 µM in experiment [4].

In the case of `Cc1ccc2c(=O)c3c(oc2c1)N1C[C@@H]2CCC[N+]4([O-])CCC[C@@H]([C@H]24)[C@H]1CC3` (stereo partly specified), the IC50 in experiment [1] is 57.1 µM; in experiment [2], 53.3 µM; in [3], 73.8 µM; in experiment [4], 49.3 µM.

As to `O=c1c2c(oc3ccc(O)cc13)N1C[C@@H]3CCCN4CCC[C@@H]([C@H]34)[C@H]1CC2`, the IC50 in experiment [1], in experiment [2], in experiment [3] and in experiment [4] was more than 100 µM in each case.

Turning to `O=c1c2c(oc3cc(C(F)(F)F)ccc13)N1C[C@@H]3CCCN4CCC[C@@H]([C@H]34)[C@H]1CC2`, the 50% inhibitory concentration (IC50) is 34.9 µM in experiment [1], 30.7 µM in experiment [2], 41.2 µM in [3] and 31.4 µM in experiment [4].

On to `COc1cccc2oc3c(c(=O)c12)CC[C@@H]1[C@H]2CCCN4CCC[C@@H](CN31)[C@@H]24`, for which the IC50 in experiment [1] amounted to 81.7 µM; in experiment [2] it was 74.1 µM; in experiment [3], 93.5 µM; in [4], 69.5 µM.

Regarding `Cc1ccc2oc3c(c(=O)c2c1)CC[C@@H]1[C@H]2CCCN4CCC[C@@H](CN31)[C@@H]24`, the IC50 in experiment [1] came out at 40.5 µM; in experiment [2], 57.1 µM; in experiment [3] it was 97.2 µM; in [4] it was 37 µM.

Turning to `O=c1c2c(oc3cc(O)ccc13)N1C[C@@H]3CCCN4CCC[C@@H]([C@H]34)[C@H]1CC2`, the IC50 in [1], in experiment [2], in [3] and in experiment [4] was more than 100 µM each time.
